Assay results from patent US20200123146A1, “HETEROCYCLIC INTEGRIN AGONISTS” (GB006, Inc., priority 2016, published 2020).

Biological target: T1, integrin CD11b/CD18 (K562 CD11b/CD18 cells) (Homo sapiens, UniProt P05107+P11215)
T1 construct: host or cells: K562 cells stably transfected with wild-type CD11b/CD18
Assay: K562 cell adhesion assay with immobilized ligands
Assay type: cell-based
Details: cell-based adhesion assay, K562 cells, 30 min at 37° C.
Excerpt: Cell Lines. K562 cells (ATCC) stably transfected with wild-type integrin CD11b/CD18 (K562 CD11b/CD18) have been described previously (Park, etal. J Biomol Screen, 2007. 12(3): 406; Gupta, et al., Blood, 2007. 109(8): 3513; incorporated herein by reference in their entirety). Mutant CD11bE320A has been described previously (Alonso, et al. Curr Biol, 2002. 12(10): R340; incorporated herein by reference in its entirety). K562 cells stably transfected with mutant integrin CD11bE320A/CD18 (K562 E320A) were generated according to literature protocols (Park, supra; Gupta, supra). All cell lines were maintained in Iscove's Modified Dulbecco's Medium (IMDM) supplemented with 10% heat-inactivated fetal bovine serum, 50 IU/ml penicillin and streptomycin and 0.5 mg/ml G418.
K562 Cell Adhesion Assay. Cell adhesion assays with immobilized ligands were performed as previously described (Park, supra). Assays with all different K562 cell lines (K562, K562 CD11b/CD18 and K562 E320A) were performed in an identical fashion. Briefly, 384-well Highbind microtiter plates were coated with a 30 μL solution of ligand in Phosphate Buffered Saline, pH 7.4 containing 1 mM each of Ca^2+ and Mg^2+ ions (PBS^++) overnight at 4° C. Ligand Fg was coated at a concentration of 5-15 μg/mL and iC3b at 1-5 μg/mL. Heterodimer specific mAb IB4 was coated at 1-20 μg/mL. Subsequently, the non-specific sites in the wells were blocked by incubation with 1% non-fat milk in Tris Buffered Saline (TBS), pH 7.4, at room temperature for 1 h. Next, the wells were washed three times with TBS. K562 cells were suspended in the assay buffer (TBS containing 1 mM each of Ca^2+ and Mg^2+ ions (TBS^++)) and were transferred to the ligand-coated wells (30,000 cells/well). Stock solutions of the integrin agonists were prepared by dissolving the compounds in DMSO at a concentration of 2-10 mM. Final concentration of DMSO in the assay was approximately 1-2%. K562 cells were incubated in the presence of increasing concentration of integrin agonist for 30 min at 37° C. To dislodge non-adherent cells, the assay plates were gently inverted and kept in the inverted position for 30 min at room temperature. Cells remaining adherent were fixed using formaldehyde and were quantitated using imaging microscopy, as previously described (Park, supra).

Row | SMILES | EC50 [nM]
1 | O=C(O)c1ccc(-c2cccc(/C=C3\SC(=S)N(Cc4ccc(F)cc4)C3=O)c2)cc1 [Compound 20, (Z)-3′-((3-(4-Fluorobenzyl)-4-oxo-2-thioxothiazolidin-5-ylidene)methyl)-[1,1′-biphenyl]-4-carboxylic acid] | 1000 to 10000
2 | Cc1ccc(CN2C(=O)/C(=C/c3ccc(-c4ccc(C(=O)O)cc4)o3)SC2=S)c(C)c1 [Compound 37, (Z)-4-(5-((3-(2,4-Dimethylbenzyl)-4-oxo-2-thioxothiazolidin-5-ylidene)methyl)furan-2-yl)benzoic acid] | 1000 to 10000
3 | COc1cccc(CN2C(=O)/C(=C/c3ccc(-c4ccc(C(=O)O)cc4)o3)SC2=S)c1 [Compound 29, (Z)-4-(5-((3-(3-Methoxybenzyl)-4-oxo-2-thioxothiazolidin-5-ylidene)methyl)furan-2-yl)benzoic acid] | 250 to 1000
4 | O=C(O)c1ccc(-c2ccc(/C=C3\SC(=S)N(Cc4ccccc4)C3=O)s2)cc1 [Compound 25, (Z)-4-(5-((3-Benzyl-4-oxo-2-thioxothiazolidin-5-ylidene)methyl)thiophen-2-yl)benzoic acid] | 100 to 250
5 | O=C(O)c1ccc(-c2ccc(/C=C3\NC(=S)N(Cc4ccccc4)C3=O)o2)cc1 [Compound 4, (Z)-4-(5-((1-Benzyl-5-oxo-2-thioxoimidazolidin-4-ylidene)methyl)furan-2-yl)benzoic acid] | 1000 to 10000
6 | COc1ccccc1CN1C(=O)/C(=C/c2ccc(-c3ccc(C(=O)O)cc3)o2)SC1=S [Compound 27, (Z)-4-(5-((3-(2-Methoxybenzyl)-4-oxo-2-thioxothiazolidin-5-ylidene)methyl)furan-2-yl)benzoic acid] | 250 to 1000
7 | O=C(O)c1ccc(-c2cccc(/C=C3\OC(=S)N(Cc4ccc(F)cc4)C3=O)c2)cc1 [Compound 9, (Z)-3′-((3-(4-Fluorobenzyl)-4-oxo-2-thioxooxazolidin-5-ylidene)methyl)-[1,1′-biphenyl]-4-carboxylic acid] | > 10000
8 | O=C(O)c1ccc(-c2cccc(/C=C3\SC(=S)N(Cc4ccccc4)C3=O)c2)cc1 [Compound 17, (Z)-3′-((3-Benzyl-4-oxo-2-thioxothiazolidin-5-ylidene)methyl)-[1,1′-biphenyl]-4-carboxylic acid] | 1000 to 10000
9 | Cc1ccc(CN2C(=O)/C(=C/c3ccc(-c4ccc(C(=O)O)cc4)o3)SC2=S)cc1C [Compound 38, (Z)-4-(5-((3-(3,4-Dimethylbenzyl)-4-oxo-2-thioxothiazolidin-5-ylidene)methyl)furan-2-yl)benzoic acid] | 100 to 250
10 | COC(=O)c1ccc(-c2ccc(/C=C3\SC(=S)N(Cc4ccccc4)C3=O)o2)cn1 [Compound 13, Methyl (Z)-5-(5-((3-benzyl-4-oxo-2-thioxothiazolidin-5-ylidene)methyl)furan-2-yl)picolinate] | 250 to 1000
11 | O=C(O)c1ccc(-c2ccnc(/C=C3\SC(=S)N(Cc4ccc(F)cc4)C3=O)c2)cc1 [Compound 22, (Z)-4-(2-((3-(4-Fluorobenzyl)-4-oxo-2-thioxothiazolidin-5-ylidene)methyl)pyridin-4-yl)benzoic acid] | 1000 to 10000
12 | COC(=O)c1ccc(-c2ccc(/C=C3\OC(=S)N(Cc4ccc(F)cc4)C3=O)o2)cn1 [Compound 10, methyl (Z)-5-(5-((3-(4-fluorobenzyl)-4-oxo-2-thioxooxazolidin-5-ylidene)methyl)furan-2-yl)picolinate] | 250 to 1000
13 | Cc1cccc(CN2C(=O)/C(=C/c3ccc(-c4ccc(C(=O)O)cc4)o3)SC2=S)c1C [Compound 31, (Z)-4-(5-((3-(2,3-Dimethylbenzyl)-4-oxo-2-thioxothiazolidin-5-ylidene)methyl)furan-2-yl)benzoic acid] | 250 to 1000
14 | COc1ccc(CN2C(=O)/C(=C/c3ccc(-c4ccc(C(=O)O)cc4)o3)SC2=S)cc1 [Compound 34, (Z)-4-(5-((3-(4-Methoxybenzyl)-4-oxo-2-thioxothiazolidin-5-ylidene)methyl)furan-2-yl)benzoic acid] | 100 to 250
15 | O=C(O)c1ccc(-c2ccc(/C=C3\SC(=S)N(Cc4ccc(Cl)cc4)C3=O)o2)cc1 [Compound 35, (Z)-4-(5-((3-(4-Chlorobenzyl)-4-oxo-2-thioxothiazolidin-5-ylidene)methyl)furan-2-yl)benzoic acid] | 100 to 250
16 | O=C(O)c1ccc(-c2ccc(/C=C3\SC(=S)N(CC4CCCCC4)C3=O)o2)cc1 [Compound 40, (Z)-4-(5-((3-(Cyclohexylmethyl)-4-oxo-2-thioxothiazolidin-5-ylidene)methyl)furan-2-yl)benzoic acid] | 1000 to 10000
17 | CN1C(=S)N(Cc2ccccc2)C(=O)/C1=C/c1ccc(-c2ccc(C(=O)O)cc2)o1 [Compound 5, (Z)-4-(5-((1-Benzyl-3-methyl-5-oxo-2-thioxoimidazolidin-4-ylidene)methyl)furan-2-yl)benzoic acid] | > 10000
18 | O=C(O)c1ccc(-c2ccc(/C=C3\SC(=S)N(Cc4ccccc4Cl)C3=O)o2)cc1 [Compound 36, (Z)-4-(5-((3-(2-Chlorobenzyl)-4-oxo-2-thioxothiazolidin-5-ylidene)methyl)furan-2-yl)benzoic acid] | 250 to 1000
19 | COC(=O)c1ccc(-c2cccc(/C=C3\SC(=S)N(Cc4ccccc4)C3=O)c2)cc1 [Compound 23, methyl (Z)-3′-((3-benzyl-4-oxo-2-thioxothiazolidin-5-ylidene)methyl)-[1,1′-biphenyl]-4-carboxylate] | > 10000
20 | Cc1ccccc1CN1C(=O)/C(=C/c2ccc(-c3ccc(C(=O)O)cc3)o2)SC1=S [Compound 26, (Z)-4-(5-((3-(2-Methylbenzyl)-4-oxo-2-thioxothiazolidin-5-ylidene)methyl)furan-2-yl)benzoic acid] | 250 to 1000
21 | O=C(O)c1ccc(-c2nccc(/C=C3\SC(=S)N(Cc4ccccc4)C3=O)n2)cc1 [Compound 19, (Z)-4-(4-((3-Benzyl-4-oxo-2-thioxothiazolidin-5-ylidene)methyl)pyrimidin-2-yl)benzoic acid] | 1000 to 10000
22 | O=C(O)c1ccc(-c2ccc(/C=C3\SC(=S)N(Cc4ccccc4)C3=O)o2)nc1 [Compound 14, (Z)-6-(5-((3-Benzyl-4-oxo-2-thioxothiazolidin-5-ylidene)methyl)furan-2-yl)nicotinic acid] | 250 to 1000
23 | O=C(O)c1ccc(-c2ccc(/C=C3\NC(=O)N(Cc4ccccc4)C3=O)o2)cc1 [Compound 3, (Z)-4-(5-((1-Benzyl-2,5-dioxoimidazolidin-4-ylidene)methyl)furan-2-yl)benzoic acid] | > 10000
24 | O=C(O)c1ccc(-c2ccc(/C=C3\SC(=S)N(Cc4cccc(Cl)c4)C3=O)o2)cc1 [Compound 30, (Z)-4-(5-((3-(3-Chlorobenzyl)-4-oxo-2-thioxothiazolidin-5-ylidene)methyl)furan-2-yl)benzoic acid] | 100 to 250
25 | O=C(O)c1ccc(-c2ccc(CN3CC(=O)N(Cc4ccccc4)C3=O)o2)cc1 [Compound 11, 4-(5-((3-Benzyl-2,4-dioxoimidazolidin-1-yl)methyl)furan-2-yl)benzoic acid] | > 10000
26 | O=C(O)c1ccc(-c2cccc(/C=C3\SC(=S)N(Cc4ccc(F)cc4)C3=O)n2)cc1 [Compound 21, (Z)-4-(6-((3-(4-Fluorobenzyl)-4-oxo-2-thioxothiazolidin-5-ylidene)methyl)pyridin-2-yl)benzoic acid] | 250 to 1000
27 | COC(=O)c1ccc(-c2ccc(/C=C3\SC(=S)N(Cc4ccc(F)cc4)C3=O)o2)cn1 [Compound 16, Methyl (Z)-5-(5-((3-(4-fluorobenzyl)-4-oxo-2-thioxothiazolidin-5-ylidene)methyl)furan-2-yl)picolinate] | 100 to 250
28 | Cc1cccc(CN2C(=O)/C(=C/c3ccc(-c4ccc(C(=O)O)cc4)o3)SC2=S)c1 [Compound 28, (Z)-4-(5-((3-(3-Methylbenzyl)-4-oxo-2-thioxothiazolidin-5-lidene)methyl)furan-2-yl)benzoic acid] | 250 to 1000
29 | CC(C)c1ccc(CN2C(=O)/C(=C/c3ccc(-c4ccc(C(=O)O)cc4)o3)SC2=S)cc1 [Compound 39, (Z)-4-(5-((3-(4-Isopropylbenzyl)-4-oxo-2-thioxothiazolidin-5-ylidene)methyl)furan-2-yl)benzoic acid] | 250 to 1000
30 | CN1C(=O)N(Cc2ccccc2)C(=O)/C1=C/c1ccc(-c2ccc(C(=O)O)cc2)o1 [Compound 2, (Z)-4-(5-((1-Benzyl-3-methyl-2,5-dioxoimidazolidin-4-ylidene)methyl)furan-2-yl)benzoic acid] | > 10000
